Source: US20100129478A1, “Plant Extracts and Methods and Uses Therefore” (priority 2005, published 2010)

Tested on: human hepatic cell line HepG2
Assay: Anti-cancer assay: cytotoxicity on HepG2 cells, trypan blue counting
Type: cell-based
Description: The cells were seeded at a density of 2.5×10^5 cell per ml in a 24 well plate. The cells were allowed to attach for 2 hour before adding the extracts at a concentration of 10 μg/ml. […] The cell viability was determined after 24 hours.
Seed HepG2 at a cell density of 2.5×10^5 cells per ml. […] Incubate in 5% CO2 incubator at 37° C. for 48 hour. Trypsinize cell. Mix with 1 part trypan blue and 4 parts PBS and count the viable cells and the non-viable cells by counting the cells that has taken typan blue (non-viable cells) and the ones that has excluded it (viable cells).

O=C1O[C@H]([C@@H](O)CO)C(O)=C1O [ascorbic acid]
No. of live cells: 66.5
